target: unphosphorylated-BTK kinase domain (UP-BTK), GST-tagged human BTK (389-659aa) (Homo sapiens (Human), UniProt Q06187); assay: BTK kinase Lanthascreen binding assay; settings: negative log of the IC50 in molar; 60 minutes incubation, 50 nM Tracer 236
Method: BTK Kinase Lanthascreen Binding Assay:
A BTK kinase lanthascreen binding assay monitors compound binding to unphosphorylated-BTK kinase domain (UP-BTK), by competing with a fluorescent labeled tracer. […] Data were analyzed using Xlfit™ version 5.3 from ID Business Solutions (Guildford), Microsoft Excel add-in. pIC50 refers to the negative log of the IC50 in molar.

unphosphorylated-BTK kinase domain (UP-BTK), GST-tagged human BTK (389-659aa), sequence (Q06187 389-659): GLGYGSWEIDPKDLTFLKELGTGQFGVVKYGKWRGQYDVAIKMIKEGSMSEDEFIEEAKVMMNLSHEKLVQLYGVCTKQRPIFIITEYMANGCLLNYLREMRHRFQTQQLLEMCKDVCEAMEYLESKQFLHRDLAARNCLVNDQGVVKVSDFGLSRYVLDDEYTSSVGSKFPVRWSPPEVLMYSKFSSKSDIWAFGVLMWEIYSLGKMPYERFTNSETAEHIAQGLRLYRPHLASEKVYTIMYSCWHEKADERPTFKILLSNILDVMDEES

Structure (SMILES) | BTK_I_binding pIC50
Cc1cc(Oc2ccccc2)ccc1N1C(=O)Nc2c(C(=O)N[C@H]3CCCN(C)C3)sc3nccc1c23 (single isomer, unassigned) [Example 249, (S)-5-(*S)-(2-Methyl-4-phenoxyphenyl)-N-(1-methylpiperidin-3-yl)-4-oxo-4,5-dihydro-3H-1-thia-3,5,8-triazaacenaphthylene-2-carboxamide] | 6.6
Cc1cc(Oc2ccccc2)ccc1N1C(=O)Nc2c(C(=O)N[C@H]3CCCOC3)sc3nccc1c23 (single isomer, unassigned) [Example 267, (S)-5-(*R)-(2-Methyl-4-phenoxyphenyl)-4-oxo-N-(tetrahydro-2H-pyran-3-yl)-4,5-dihydro-3H-1-thia-3,5,8-triazaacenaphthylene-2-carboxamide] | 6.3

same assay, conditions: unphosphorylated-BTK kinase domain; 60 minutes incubation; pIC50 = negative log of the IC50 in molar

Structure (SMILES) | BTK_I_binding pIC50
Cc1cc(Oc2ccccc2)ccc1N1C(=O)Nc2c(C(=O)N[C@@H]3CCCN(C(=O)CN(C)C)C3)sc3nccc1c23 (single isomer, unassigned) [Example 287, (R)—N-(1-(2-(Dimethylamino)acetyl)piperidin-3-yl)-5-(*R)-(2-methyl-4-phenoxyphenyl)-4-oxo-4,5-dihydro-3H-1-thia-3,5,8-triazaacenaphthylene-2-carboxamide] | 6.2
C=CC(=O)N1CCC[C@H](NC(=O)c2sc3nccc4c3c2NC(=O)N4c2ccc(Oc3ccccc3)cc2C)C1 (single isomer, unassigned) [Example 289, (S)—N-(1-Acryloylpiperidin-3-yl)-5-(*R)-(2-methyl-4-phenoxyphenyl)-4-oxo-4,5-dihydro-3H-1-thia-3,5,8-triazaacenaphthylene-2-carboxamide] | 6.2
CNC/C=C/C(=O)N1CCC[C@@H](NC(=O)c2sc3nccc4c3c2NC(=O)N4c2ccc(Oc3ccccc3)cc2C)C1 (single isomer, unassigned) [Example 292, (R,E)-5-(*R)-(2-Methyl-4-phenoxyphenyl)-N-(1-(4-(methylamino)but-2-enoyl)piperidin-3-yl)-4-oxo-4,5-dihydro-3H-1-thia-3,5,8-triazaacenaphthylene-2-carboxamide] | 6.1
Cc1cc(Oc2ccccc2)ccc1N1C(=O)Nc2c(C(=O)N[C@@H]3CCCNC3)sc3nccc1c23 (single isomer, unassigned) [Example 300, (R)-5-(*R)-(2-methyl-4-phenoxyphenyl)-4-oxo-N-(piperidin-3-yl)-4,5-dihydro-3H-1-thia-3,5,8-triazaacenaphthylene-2-carboxamide] | 6.0
Cc1cc(Oc2ccccc2)ccc1N1C(=O)Nc2c(C(=O)N[C@@H]3CCCOC3)sc3nccc1c23 (single isomer, unassigned) [Example 307, (R)-5-(*R)-(2-Methyl-4-phenoxyphenyl)-4-oxo-N-(tetrahydro-2H-pyran-3-yl)-4,5-dihydro-3H-1-thia-3,5,8-triazaacenaphthylene-2-carboxamide] | 6.0
C=CC(=O)N1CCC[C@@H](NC(=O)c2sc3nccc4c3c2NC(=O)N4c2c(Cl)ccc3c2OCO3)C1 (single isomer, unassigned) [Example 321, (R)—N-(1-Acryloylpiperidin-3-yl)-5-(*R)-(5-chlorobenzo[d][1,3]dioxol-4-yl)-4-oxo-4,5-dihydro-3H-1-thia-3,5,8-triazaacenaphthylene-2-carboxamide] | 7.1
Cc1cc(Oc2ccccc2)ccc1N1C(=O)Nc2c(C(=O)N[C@@H]3CCCN(C#N)C3)sc3nccc1c23 (single isomer, unassigned) [Example 329, (R)—N-(1-Cyanopiperidin-3-yl)-5-(*R)-(2-methyl-4-phenoxyphenyl)-4-oxo-4,5-dihydro-3H-1-thia-3,5,8-triazaacenaphthylene-2-carboxamide] | 5.7
Cc1cc(Oc2ccccc2)ccc1N1C(=O)Nc2c(C(=O)N[C@H]3CCCN(C)C3)sc3nccc1c23 (single isomer, unassigned) [Example 339, (S)-5-(*R)-(2-Methyl-4-phenoxyphenyl)-N-(1-methylpiperidin-3-yl)-4-oxo-4,5-dihydro-3H-1-thia-3,5,8-triazaacenaphthylene-2-carboxamide] | 5.4
Cc1cc(OC2CCOCC2)ccc1N1C(=O)Nc2c(C(=O)N[C@@H]3CCCN(C)C3)sc3nccc1c23 (single isomer, unassigned) [Example 343, (R)-5-(*R)-(2-Methyl-4-((tetrahydro-2H-pyran-4-yl)oxy)phenyl)-N-(1-methylpiperidin-3-yl)-4-oxo-4,5-dihydro-3H-1-thia-3,5,8-triazaacenaphthylene-2-carboxamide] | 5.3
CN1CCC[C@@H](NC(=O)c2sc3nccc4c3c2NC(=O)N4c2c(Cl)ccc3c2OCO3)C1 (single isomer, unassigned) [Example 353, (R)-5-(*R)-(5-Chlorobenzo[d][1,3]dioxol-4-yl)-N-(1-methylpiperidin-3-yl)-4-oxo-4,5-dihydro-3H-1-thia-3,5,8-triazaacenaphthylene-2-carboxamide] | 5.8
C=C(Cl)C(=O)N1CCC[C@@H](NC(=O)c2sc3nccc4c3c2NC(=O)N4c2ccc(Oc3ccccc3)cc2C)C1 (single isomer, unassigned) [Example 366, (R)—N-(1-(2-Chloroacryloyl)piperidin-3-yl)-5-(*S)-(2-methyl-4-phenoxyphenyl)-4-oxo-4,5-dihydro-3H-1-thia-3,5,8-triazaacenaphthylene-2-carboxamide] | 7.1
Cc1cc(Oc2ccccc2)ccc1N1C(=O)Nc2c(C(=O)N[C@@H]3CCCN(C(=O)/C=C/CN)C3)sc3nccc1c23 (single isomer, unassigned) [Example 367, (R,E)-N-(1-(4-Aminobut-2-enoyl)piperidin-3-yl)-5-(*R)-(2-methyl-4-phenoxyphenyl)-4-oxo-4,5-dihydro-3H-1-thia-3,5,8-triazaacenaphthylene-2-carboxamide] | 6.2
C=CC(=O)N1CCC[C@@H](NC(=O)c2sc3nccc4c3c2NC(=O)N4c2ccc(OC(C)C)cc2C)C1 (single isomer, unassigned) [Example 417, (R)—N-(1-Acryloylpiperidin-3-yl)-5-(*S)-(4-isopropoxy-2-methylphenyl)-4-oxo-4,5-dihydro-3H-1-thia-3,5,8-triazaacenaphthylene-2-carboxamide] | 5.9
C=CC(=O)N1CCC[C@@H](NC(=O)c2sc3nccc4c3c2NC(=O)N4c2ccc(OC(C)C)cc2C)C1 (single isomer, unassigned) [Example 418, (R)—N-(1-Acryloylpiperidin-3-yl)-5-(*R)-(4-isopropoxy-2-methylphenyl)-4-oxo-4,5-dihydro-3H-1-thia-3,5,8-triazaacenaphthylene-2-carboxamide] | 7.8
CCOC(C)(C)/C=C(\C#N)C(=O)N1CCC[C@@H](NC(=O)c2sc3nccc4c3c2NC(=O)N4c2ccc(Oc3ccccc3)cc2C)C1 (single isomer, unassigned) [Example 478, (R,*E)-N-(1-(2-Cyano-4-ethoxy-4-methylpent-2-enoyl)piperidin-3-yl)-5-(*S)-(2-methyl-4-phenoxyphenyl)-4-oxo-4,5-dihydro-3H-1-thia-3,5,8-triazaacenaphthylene-2-carboxamide] | 7.8
CCOC(C)(C)/C=C(\C#N)C(=O)N1CCC[C@@H](NC(=O)c2sc3nccc4c3c2NC(=O)N4c2ccc(Oc3ccccc3)cc2C)C1 (single isomer, unassigned) [Example 480, (R,*E)-N-(1-(2-Cyano-4-ethoxy-4-methylpent-2-enoyl)piperidin-3-yl)-5-(*R)-(2-methyl-4-phenoxyphenyl)-4-oxo-4,5-dihydro-3H-1-thia-3,5,8-triazaacenaphthylene-2-carboxamide] | 7.2
CCOC(C)(C)/C=C(\C#N)C(=O)N1CCC[C@@H](NC(=O)c2sc3nccc4c3c2NC(=O)N4c2ccc(Oc3ccccc3)cc2C)C1 (single isomer, unassigned) [Example 487, (R,E)-N-(1-(2-Cyano-4-ethoxy-4-methylpent-2-enoyl)piperidin-3-yl)-5-(*S)-(2-methyl-4-phenoxyphenyl)-4-oxo-4,5-dihydro-3H-1-thia-3,5,8-triazaacenaphthylene-2-carboxamide] | 7.6
C=CC(=O)N1CCC[C@@H](NC(=O)c2sc3nccc4c3c2NC(=O)N4c2ccc(OC(F)(F)F)cc2C)C1 (single isomer, unassigned) [Example 505, (R)—N-(1-Acryloylpiperidin-3-yl)-5-(*S)-(2-methyl-4-(trifluoromethoxy)phenyl)-4-oxo-4,5-dihydro-3H-1-thia-3,5,8-triazaacenaphthylene-2-carboxamide] | 7.8
Cc1cc(Oc2ccccc2)ccc1N1C(=O)Nc2c(C(=O)N[C@@H]3CCCN(C(=O)/C=C/CN)C3)sc3nccc1c23 (single isomer, unassigned) [Example 511, (R,E)-N-(1-(4-Aminobut-2-enoyl)piperidin-3-yl)-5-(*S)-(2-methyl-4-phenoxyphenyl)-4-oxo-4,5-dihydro-3H-1-thia-3,5,8-triazaacenaphthylene-2-carboxamide] | 7.8
Cc1cc(Oc2ccccc2)ccc1N1C(=O)Nc2c(C(=O)N[C@@H]3CCCN(C(=O)/C(C#N)=C/C4CC4)C3)sc3nccc1c23 (single isomer, unassigned) [Example 514, (R,E)-N-(1-(2-Cyano-3-cyclopropylacryloyl)piperidin-3-yl)-5-(*S)-(2-methyl-4-phenoxyphenyl)-4-oxo-4,5-dihydro-3H-1-thia-3,5,8-triazaacenaphthylene-2-carboxamide] | 7.7
C=CC(=O)N1CC[C@H](NC(=O)c2sc3nccc4c3c2NC(=O)N4c2ccc(Oc3ccccc3)cc2C)C1 (single isomer, unassigned) [Example 518, (S)—N-(1-Acryloylpyrrolidin-3-yl)-5-(*S)-(2-methyl-4-phenoxyphenyl)-4-oxo-4,5-dihydro-3H-1-thia-3,5,8-triazaacenaphthylene-2-carboxamide] | 7.6

Reference: patent publication US10822348B2, “Inhibitors of Bruton's tyrosine kinase and methods of their use” (JANSSEN PHARMACEUTICA NV, priority 2015, dated 2020)
